What was measured:
[1] = system: TNF-α-induced P-selectin expression by endothelial cells (HUVEC); experiment: Inhibition of TNF-α-induced P-selectin expression by endothelial cells (cell ELISA); type: cell-based; conditions: compound 10 μM; TNF-α 1 ng/ml; 3 h 30 min incubation; human endothelial cells
Experimental: (§1) Human endothelial cells are grown under the same conditions as those described in Example 6.
(§2) When the cells are close to confluence, they are incubated for one hour in the presence or in the absence of one of the following compounds: BXT-51097 or BXT-51103. Each one of these compounds is incorporated at 10 μM in the culture medium containing 2% foetal calf serum, everything else being equal. After the removal of the culture medium, the cells are incubated in the presence or in the absence (control) of TNF-α, at 1 ng/ml, in the same culture medium as before. In the case of cells pre-treated with a compound, the medium further contains the same compound at 10 μM. After three hours and thirty minutes of incubation, the cells are washed with PBS buffer and they are fixed with 2% formaldehyde in the same buffer. The P- and E-selectin expressions on the cells are then measured by an ELISA determination by successively incubating the cells in the presence of a mouse monoclonal antibody, anti-P-selectin and anti-E-selectin respectively, and a rabbit anti-mouse anti-antibody labelled with alkaline phosphatase. The quantification is carried out upon the addition of para-nitrophenyl phosphate whose hydrolysis is followed at 405 nm.

[2] = Glutathione peroxidase activity (NADPH-coupled, GSH/glutathione disulphide reductase); type: biochemical; conditions: compound 20 μM, pH = 7.3, 37° C., [GSH] = 2 mM; for Glutathione peroxidase activity, H2O2: substrate H2O2; for Glutathione peroxidase activity, t-BuOOH: substrate t-BuOOH
Experimental: The glutathione peroxidase activity is determined by using a 50 mM HEPES buffer, pH=7.3 (at 37° C.), containing 0.2 mM DTPA, 0.144 mM NADPH, 2.2 mM reduced glutathione (GSH) and 1.1 U/ml glutathione disulphide reductase. This buffer further contains 110 U/ml catalase when hydrogen peroxide is not used as substrate.
To 1.5 ml of the buffer described above, are added 100 μl of an ethanolic stock solution of the compound tested or 100 μl of absolute ethanol (blank). Each compound is tested at a final concentration of 20 μM. The reaction medium is equilibrated for 2 minutes at 37° C. Then 50 μl of 6.6 mM tert-butyl hydroperoxide (t-BuOOH) in ultrapure water, or 3.3 mM hydrogen peroxide (H2O2) in ultrapure water are added. The glutathione peroxidase activity is determined at 37° C. by measuring the decrease of absorbance at 340 nm for 5 minutes. Said activity or initial enzymatic rate is proportional to the slope of the variation of absorbance with time.
The catalytic activity of oxygen reduction of the compounds tested corresponds to the rate of consum.p.ion of NADPH in the absence of hydroperoxide.
They are expressed in nmoles of hydroperoxide reduced per minute.

[3] = system: TNF-α-induced interleukin 8 release by endothelial cells (HUVEC); experiment: Inhibition of the TNF-α-induced release of interleukin 8 by endothelial cells (ELISA); type: cell-based; conditions: compound 10 μM, TNF-α 1 ng/ml, 3 h 30 min incubation, human endothelial cells, read-out: Inhibition of TNF-α-induced IL-8 production in the culture medium
Experimental: Human endothelial cells are grown at 37° C. in multi-well plates under a water-saturated atmosphere constituted of a gaseous mixture of 95% air and 5% CO2. Their culture medium is constituted by a medium M 199 pH=7.4 containing 20% foetal calf serum, 2 mM L-glutamine, 100 U/ml penicillin, 100 μg/ml streptomycin and 1% by volume of a medium supplement containing heparin and a growth factor for these cells.
When the cells are close to confluence, they are incubated for one hour in the presence or in the absence of one of the following compounds: BXT-51097 or BXT-51103. Each one of these compounds is incorporated at 10 μM in the culture medium containing 2% foetal calf serum, everything else being equal. After removal of the culture medium, the cells are incubated in the presence or in the absence (control) of TNF-α, at 1 ng/ml, in the same culture medium as before. In the case of cells pre-treated with a compound of the invention, the medium further contains the same compound at 10 μM. After three hours and thirty minutes of incubation, the interleukin 8 (IL-8) released into the culture medium is determined by ELISA.

[4] = system: TNF-α-induced E-selectin expression by endothelial cells (HUVEC); experiment: Inhibition of TNF-α-induced E-selectin expression by endothelial cells (cell ELISA); type: cell-based; conditions: compound 10 μM; TNF-α 1 ng/ml; 3 h 30 min incubation; human endothelial cells
Experimental: as §1, §2

[5] = even in the presence of an excess of glutathione GSH; cited from earlier work

Row | Compound | Inhibition of TNF-α-induced P-selectin expression [1] | Glutathione peroxidase activity, H2O2 [2] | Glutathione peroxidase activity, t-BuOOH [2] | inhibition at 10 µM [3] [%] | Inhibition of TNF-α-induced E-selectin expression [4] | Solubility in water [5]
1 | CC1(C)CN[Se]c2sccc21 [BXT-51097, 4,4-Dimethyl-thieno-[3,2-e]-isoselenazine] | totally inhibited | 39.8 nmoles of hydroperoxide reduced/min | 11.4 nmoles of hydroperoxide reduced/min | ≥ 85 | totally inhibited | –
2 | CC1(C)CN[Se](=O)c2sccc21 (stereo not drawn) [BXT-51100, 4,4-Dimethyl-thieno-[3,2-e]-isoselenazine-1-oxide] | – | 37.1 nmoles of hydroperoxide reduced/min | 10.1 nmoles of hydroperoxide reduced/min | – | – | –
3 | CC1(C)CN[Se]c2ccsc21 [BXT-51103, 4,4-Dimethyl-thieno-[2,3-e]-isoselenazine] | totally inhibited | 34.9 nmoles of hydroperoxide reduced/min | 15.5 nmoles of hydroperoxide reduced/min | ≥ 85 | totally inhibited | –
4 | CC1(C)CN[Se](=O)c2ccsc21 (stereo not drawn) [BXT-51105, 4,4-Dimethyl-thieno-[23-e]-isoselenazine-1-oxide] | – | 35.7 nmoles of hydroperoxide reduced/min | 13.9 nmoles of hydroperoxide reduced/min | – | – | –
5 | O=c1c2ccccc2[se]n1-c1ccccc1 [ebselen, 2-phenyl-1,2-benzisoselenazolin-3-one] | – | – | – | – | – | very little soluble in water
